Test results taken from ChEMBL document CHEMBL5291721, “A preclinical secondary pharmacology resource illuminates target-adverse drug reaction associations of marketed drugs” (Nat Commun, 2023).

Legend:
[1] = target: T1, Alpha-2C adrenergic receptor (Homo sapiens, UniProt P18825); type: functional
T1 sequence (P18825 whole entry): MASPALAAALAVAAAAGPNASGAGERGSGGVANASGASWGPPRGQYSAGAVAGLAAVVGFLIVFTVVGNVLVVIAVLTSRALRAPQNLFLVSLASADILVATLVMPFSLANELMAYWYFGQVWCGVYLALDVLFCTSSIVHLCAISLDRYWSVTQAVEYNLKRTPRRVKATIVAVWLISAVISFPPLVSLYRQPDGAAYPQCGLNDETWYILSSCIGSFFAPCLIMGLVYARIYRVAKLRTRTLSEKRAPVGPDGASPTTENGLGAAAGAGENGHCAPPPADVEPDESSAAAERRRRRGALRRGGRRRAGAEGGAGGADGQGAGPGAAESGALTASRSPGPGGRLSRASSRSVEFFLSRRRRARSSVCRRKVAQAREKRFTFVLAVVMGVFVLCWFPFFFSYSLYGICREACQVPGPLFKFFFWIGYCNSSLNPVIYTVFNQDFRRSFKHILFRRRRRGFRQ

[2] = target: T2, 5-hydroxytryptamine receptor 2A (Homo sapiens, UniProt P28223); type: functional, cell-based
[3] = target: T3, Alpha-2A adrenergic receptor (Homo sapiens, UniProt P08913); type: functional, cell-based
T3 sequence (P08913 whole entry): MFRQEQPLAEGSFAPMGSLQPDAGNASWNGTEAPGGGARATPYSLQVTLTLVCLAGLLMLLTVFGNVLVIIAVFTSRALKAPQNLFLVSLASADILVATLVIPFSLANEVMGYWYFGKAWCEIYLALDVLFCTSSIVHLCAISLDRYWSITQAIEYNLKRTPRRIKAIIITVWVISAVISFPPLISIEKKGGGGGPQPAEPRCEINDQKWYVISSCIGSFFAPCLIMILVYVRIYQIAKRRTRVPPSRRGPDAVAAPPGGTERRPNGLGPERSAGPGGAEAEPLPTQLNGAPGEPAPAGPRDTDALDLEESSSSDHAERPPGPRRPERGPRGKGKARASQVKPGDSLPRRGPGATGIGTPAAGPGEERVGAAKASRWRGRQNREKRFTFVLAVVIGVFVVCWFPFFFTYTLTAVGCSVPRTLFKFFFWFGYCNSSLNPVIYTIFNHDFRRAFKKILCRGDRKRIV

[4] = target: 5-hydroxytryptamine receptor 2B (Homo sapiens, UniProt P41595); type: functional, cell-based
[5] = target: Beta-1 adrenergic receptor (Homo sapiens, UniProt P08588); type: functional
Endothelin-1 receptor = target: T4, Endothelin-1 receptor (Homo sapiens, UniProt P25101)
T4 sequence (P25101 whole entry): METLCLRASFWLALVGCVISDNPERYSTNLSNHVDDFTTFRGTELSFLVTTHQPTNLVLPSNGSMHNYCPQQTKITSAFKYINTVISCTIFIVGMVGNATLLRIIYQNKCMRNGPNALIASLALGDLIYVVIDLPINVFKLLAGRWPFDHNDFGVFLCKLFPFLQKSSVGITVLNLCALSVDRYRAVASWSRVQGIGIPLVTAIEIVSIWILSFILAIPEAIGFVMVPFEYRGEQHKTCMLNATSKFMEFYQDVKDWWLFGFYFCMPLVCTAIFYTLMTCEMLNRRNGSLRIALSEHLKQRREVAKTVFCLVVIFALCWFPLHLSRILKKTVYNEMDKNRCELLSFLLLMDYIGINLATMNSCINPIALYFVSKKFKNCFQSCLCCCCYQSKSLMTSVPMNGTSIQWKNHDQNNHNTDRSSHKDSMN

[6] = target: T5, Alpha-1A adrenergic receptor (Homo sapiens, UniProt P35348); type: functional, cell-based
T5 sequence (P35348 whole entry): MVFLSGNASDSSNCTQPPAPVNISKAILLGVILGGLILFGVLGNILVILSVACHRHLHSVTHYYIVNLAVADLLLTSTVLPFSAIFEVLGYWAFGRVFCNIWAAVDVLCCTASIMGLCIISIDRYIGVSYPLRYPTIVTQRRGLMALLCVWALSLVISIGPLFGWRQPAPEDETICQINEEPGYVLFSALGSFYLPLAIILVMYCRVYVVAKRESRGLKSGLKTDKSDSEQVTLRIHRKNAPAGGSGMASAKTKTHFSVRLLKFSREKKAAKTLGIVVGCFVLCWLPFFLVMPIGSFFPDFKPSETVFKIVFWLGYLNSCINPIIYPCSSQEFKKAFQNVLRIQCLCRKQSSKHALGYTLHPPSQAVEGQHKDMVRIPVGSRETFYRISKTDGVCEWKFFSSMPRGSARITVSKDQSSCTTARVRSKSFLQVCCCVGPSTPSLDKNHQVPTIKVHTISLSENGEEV

Thromboxane A2 receptor = target: T6, Thromboxane A2 receptor (Homo sapiens, UniProt P21731)
T6 sequence (P21731 whole entry): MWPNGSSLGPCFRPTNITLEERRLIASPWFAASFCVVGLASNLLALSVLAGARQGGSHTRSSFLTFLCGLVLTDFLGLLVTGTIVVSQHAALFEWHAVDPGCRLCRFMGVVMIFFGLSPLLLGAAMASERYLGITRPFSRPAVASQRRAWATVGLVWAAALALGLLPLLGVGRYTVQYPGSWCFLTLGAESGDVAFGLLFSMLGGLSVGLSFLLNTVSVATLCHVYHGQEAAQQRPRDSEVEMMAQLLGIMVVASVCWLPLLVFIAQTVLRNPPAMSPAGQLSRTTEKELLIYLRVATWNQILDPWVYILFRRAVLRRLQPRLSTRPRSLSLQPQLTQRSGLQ

[7] = target: T7, Alpha-2B adrenergic receptor (Homo sapiens, UniProt P18089)
T7 sequence (P18089 whole entry): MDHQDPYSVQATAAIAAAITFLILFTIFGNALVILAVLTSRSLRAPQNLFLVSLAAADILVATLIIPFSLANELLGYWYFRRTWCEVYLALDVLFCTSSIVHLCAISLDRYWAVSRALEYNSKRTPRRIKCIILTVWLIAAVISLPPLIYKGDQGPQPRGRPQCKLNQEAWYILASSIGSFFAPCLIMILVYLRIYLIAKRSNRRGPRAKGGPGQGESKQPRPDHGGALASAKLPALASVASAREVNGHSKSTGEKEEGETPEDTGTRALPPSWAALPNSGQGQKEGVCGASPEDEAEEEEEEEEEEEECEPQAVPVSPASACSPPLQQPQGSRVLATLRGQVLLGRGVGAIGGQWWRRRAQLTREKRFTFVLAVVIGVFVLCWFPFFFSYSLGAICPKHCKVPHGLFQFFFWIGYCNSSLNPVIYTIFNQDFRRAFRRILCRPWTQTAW

[8] = target: T2, 5-hydroxytryptamine receptor 2A; type: functional, cell-based; remark: listed apart in the source
Also: assay procedure not described here.

Sequence of 5-hydroxytryptamine receptor 2B (P41595 whole entry): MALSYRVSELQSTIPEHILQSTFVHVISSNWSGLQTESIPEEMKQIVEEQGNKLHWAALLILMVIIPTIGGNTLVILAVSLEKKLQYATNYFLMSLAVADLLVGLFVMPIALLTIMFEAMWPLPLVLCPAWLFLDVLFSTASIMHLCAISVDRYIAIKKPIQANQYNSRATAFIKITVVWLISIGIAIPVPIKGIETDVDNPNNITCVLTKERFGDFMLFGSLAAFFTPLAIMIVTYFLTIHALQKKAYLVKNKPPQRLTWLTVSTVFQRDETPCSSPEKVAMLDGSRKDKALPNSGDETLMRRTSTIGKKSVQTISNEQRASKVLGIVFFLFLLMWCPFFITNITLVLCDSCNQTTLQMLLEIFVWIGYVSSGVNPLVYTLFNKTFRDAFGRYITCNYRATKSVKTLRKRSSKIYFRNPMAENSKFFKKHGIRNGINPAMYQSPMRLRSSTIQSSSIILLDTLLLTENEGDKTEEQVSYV
Sequence of Beta-1 adrenergic receptor (P08588 whole entry): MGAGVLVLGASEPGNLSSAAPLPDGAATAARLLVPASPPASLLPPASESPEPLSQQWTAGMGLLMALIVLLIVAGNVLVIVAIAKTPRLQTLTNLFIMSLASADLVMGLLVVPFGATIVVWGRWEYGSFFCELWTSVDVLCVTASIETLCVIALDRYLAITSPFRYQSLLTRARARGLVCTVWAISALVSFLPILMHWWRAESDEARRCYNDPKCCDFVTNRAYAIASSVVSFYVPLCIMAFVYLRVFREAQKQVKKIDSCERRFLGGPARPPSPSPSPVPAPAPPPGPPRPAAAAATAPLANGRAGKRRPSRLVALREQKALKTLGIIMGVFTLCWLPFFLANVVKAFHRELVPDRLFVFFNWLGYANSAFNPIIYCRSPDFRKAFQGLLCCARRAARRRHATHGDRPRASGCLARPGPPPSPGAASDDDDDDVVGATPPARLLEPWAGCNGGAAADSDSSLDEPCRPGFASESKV
T2 sequence (P28223 whole entry): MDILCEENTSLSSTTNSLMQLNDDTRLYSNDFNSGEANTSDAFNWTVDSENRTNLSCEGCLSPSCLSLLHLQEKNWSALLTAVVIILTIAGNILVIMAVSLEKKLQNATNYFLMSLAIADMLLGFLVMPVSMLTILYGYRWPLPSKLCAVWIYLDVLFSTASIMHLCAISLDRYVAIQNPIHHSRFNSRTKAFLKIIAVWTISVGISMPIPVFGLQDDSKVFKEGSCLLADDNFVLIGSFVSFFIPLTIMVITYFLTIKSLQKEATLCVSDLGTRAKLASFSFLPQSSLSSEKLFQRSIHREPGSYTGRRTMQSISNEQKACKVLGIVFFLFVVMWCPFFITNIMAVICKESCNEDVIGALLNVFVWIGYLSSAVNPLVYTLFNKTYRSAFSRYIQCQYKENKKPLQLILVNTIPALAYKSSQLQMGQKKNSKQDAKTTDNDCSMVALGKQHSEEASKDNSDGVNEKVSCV

Row | SMILES | AC50 [1] | AC50 [2] | AC50 [3] | AC50 [4] | AC50 [5] | AC50 (Endothelin-1 receptor) | AC50 [6] | AC50 (Thromboxane A2 receptor) | AC50 [7] | AC50 [8]
1 | CCCN(CC)C(CC)C(=O)Nc1c(C)cccc1C (stereo not given) [ETIDOCAINE] | > 30 µM | > 30 µM | > 30 µM | > 30 µM | > 30 µM | > 30 µM | > 30 µM | > 30 µM | > 30 µM | > 30 µM
2 | O=C(O)c1ccccc1Nc1cccc(C(F)(F)F)c1 [FLUFENAMIC ACID] | > 10 µM | > 30 µM | > 30 µM | > 30 µM | > 10 µM | > 30 µM | > 30 µM | > 30 µM | > 10 µM | > 30 µM
3 | C#C[C@]1(O)CC[C@H]2[C@@H]3CCC4=CC(=O)CCC4=C3C=C[C@@]21CC [GESTRINONE] | > 30 µM | > 30 µM | > 30 µM | 24 µM | > 30 µM | > 30 µM | > 30 µM | > 30 µM | > 30 µM | > 30 µM
4 | CCCCCCOC(=O)CCC(=O)CN [HEXAMINOLEVULINATE] | > 30 µM | > 30 µM | > 30 µM | > 30 µM | > 30 µM | > 30 µM | > 30 µM | > 30 µM | > 30 µM | > 30 µM
5 | CC(C)OC(=O)C(C(=O)OC(C)C)=C1SC=CS1 [MALOTILATE] | > 30 µM | > 30 µM | > 30 µM | > 30 µM | > 30 µM | > 30 µM | 28 µM | > 30 µM | > 30 µM | > 30 µM
6 | CN(c1nccc(=O)[nH]1)C1CCN(c2nc3ccccc3n2Cc2ccc(F)cc2)CC1 [MIZOLASTINE] | > 30 µM | > 30 µM | > 30 µM | 17 µM | > 30 µM | > 30 µM | > 30 µM | > 30 µM | > 30 µM | > 30 µM
7 | O=C1Nc2ccc(Cl)cc2C(c2ccccc2)=NC1O (stereo not given) [OXAZEPAM] | > 10 µM | > 30 µM | > 10 µM | > 10 µM | > 10 µM | > 30 µM | > 30 µM | > 30 µM | > 10 µM | > 30 µM
8 | CC(=O)c1ccc2c(c1)N(CCCN1CCC(CCO)CC1)c1ccccc1S2 [PIPERACETAZINE] | 0.37 µM | > 30 µM | > 30 µM | 4.7 µM | > 30 µM | > 30 µM | 0.14 µM | > 30 µM | 0.068 µM | 0.3 µM
9 | Cc1ccc(=O)n(-c2ccccc2)c1 [PIRFENIDONE] | > 30 µM | > 30 µM | > 30 µM | > 30 µM | > 30 µM | > 30 µM | > 30 µM | > 30 µM | > 30 µM | > 30 µM
10 | CCN(CC)CC(=O)Oc1ccc(NC(C)=O)cc1 [PROPACETAMOL] | > 30 µM | > 30 µM | > 30 µM | > 30 µM | > 30 µM | > 30 µM | > 30 µM | > 30 µM | > 30 µM | > 30 µM
11 | CCCOC(C(=O)OC1CCN(C)CC1)(c1ccccc1)c1ccccc1 [PROPIVERINE] | > 30 µM | > 30 µM | > 30 µM | 16 µM | > 30 µM | > 30 µM | > 30 µM | > 30 µM | > 30 µM | 26 µM
12 | CC(NCCc1ccc(O)cc1)C(O)c1ccc(O)cc1 (stereo not given) [RITODRINE] | > 30 µM | > 30 µM | > 30 µM | > 30 µM | 17 µM | > 30 µM | 2 µM | > 30 µM | > 30 µM | > 30 µM
13 | COc1c(O[C@@H]2O[C@H](CO)[C@@H](O)[C@H](O)[C@H]2O)cc2c(c1OC)-c1ccc(SC)c(=O)cc1[C@@H](NC(C)=O)CC2 [THIOCOLCHICOSIDE] | > 30 µM | > 30 µM | > 30 µM | > 30 µM | > 30 µM | > 30 µM | > 30 µM | > 30 µM | > 30 µM | > 30 µM
